The NIST ThermoML archive (doi:10.1016/j.fluid.2011.02.008)
“And” between values parts separate entries of the source, which are not always exact repeats. Identical values can stand only once. Numbers after ± are expanded uncertainties.

Details: Liquid, Closed cell (Static) method

O=S=O [sulfur dioxide]
vapor or sublimation pressure (343.15 K): 1479 ± 5 kPa and 1469 ± 24 kPa
vapor or sublimation pressure (373.15 K): 2883 ± 9 kPa
vapor or sublimation pressure (413.15 K): 5836 ± 18 kPa and 5978 ± 32 kPa
